Data as given in patent US4180506A, “6β-Bromo penicillanic acid” (priority 1978, dated 1979).
Read-outs that look alike come from different tables or passages of the source.

Tests used:
Vibrio percolans MB-1272 = test: Bilayer agar diffusion test, potentiation of Pen G in the presence of penicillinase; assay type: cell-based
S. aureus MB-3649 = test: Disc agar diffusion test, potentiation of Pen G and ampicillin; assay type: cell-based, Staphylococcus aureus MB-3649
S. aureus MB-3648 = test: as above; assay type: cell-based, Staphylococcus aureus MB-3648
[1] = test system: two penicillinase-producing animal-pathogenic strains of Staphylococcus aureus; assay type: cell-based, Staphylococcus aureus MB-3648 and MB-3649
[2] = Ampicillin 15.7 μg/ml plus 4 μg/ml clavulanic acid
[3] = Ampicillin 15.7 μg/ml plus 32 μg/ml 6 BPA
[4] = Ampicillin 31.3 μg/ml plus 4 μg/ml clavulanic acid
[5] = Ampicillin 31.3 μg/ml plus 32 μg/ml 6 BPA
[6] = Ampicillin 62.5 μg/ml plus 4 μg/ml clavulanic acid
[7] = Ampicillin 62.5 μg/ml plus 32 μg/ml 6 BPA
[8] = Ampicillin 125 μg/ml plus 4 μg/ml clavulanic acid
[9] = Ampicillin 125 μg/ml plus 32 μg/ml 6 BPA
[10] = Ampicillin 250 μg/ml plus 4 μg/ml clavulanic acid
[11] = Ampicillin 250 μg/ml plus 32 μg/ml 6 BPA
[12] = subinhibitory concentration (1/4 MZC), extrapolated on standard/regression curve

SMILES: CC1(C)S[C@@H]2[C@H](NC(=O)Cc3ccccc3)C(=O)N2[C@H]1C(=O)O [Pen G]
- zone of inhibition at 5 µg/mL (Vibrio percolans MB-1272; Comamonas terrigena, MB1272, Penase 10^4 units/ml, Pen G 5 μg/ml, no inhibitor, read-out: Zone of inhibition, Penase + Pen G Alone): 0 mm

SMILES: CC1(C)S[C@@H]2[C@H](NC(=O)[C@H](N)c3ccccc3)C(=O)N2[C@H]1C(=O)O [Ampicillin]
- Inhibition Zone Diameter, plus Clavulanic Ac (S. aureus MB-3649; [2]): 20 mm
- Inhibition Zone Diameter, plus 6 BPA (S. aureus MB-3649; [3]): 19 mm
- Inhibition Zone Diameter, plus Clavulanic Ac (S. aureus MB-3649; [4]): 23 mm
- Inhibition Zone Diameter, plus 6 BPA (S. aureus MB-3649; [5]): 21 mm
- Inhibition Zone Diameter, plus Clavulanic Ac (S. aureus MB-3649; [6]): 24 mm
- Inhibition Zone Diameter, plus 6 BPA (S. aureus MB-3649; [7]): 23 mm
- Inhibition Zone Diameter, plus Clavulanic Ac (S. aureus MB-3649; [8]): 25 mm
- Inhibition Zone Diameter, plus 6 BPA (S. aureus MB-3649; [9]): 24 mm
- Inhibition Zone Diameter, plus Clavulanic Ac (S. aureus MB-3649; [10]): 24 mm
- Inhibition Zone Diameter, plus 6 BPA (S. aureus MB-3649; [11]): 29 mm
- zone of inhibition at 15.7 µg/mL (S. aureus MB-3649; Staphylococcus aureus, MB3649, Ampicillin 15.7 μg/ml, read-out: Inhibition Zone Diameter, alone): 0 mm
- zone of inhibition at 31.3 µg/mL (S. aureus MB-3649; Staphylococcus aureus, MB3649, Ampicillin 31.3 μg/ml, read-out: Inhibition Zone Diameter, alone): 0 mm
- zone of inhibition at 62.5 µg/mL (S. aureus MB-3649; Staphylococcus aureus, MB3649, Ampicillin 62.5 μg/ml, read-out: Inhibition Zone Diameter, alone): 0 mm
- zone of inhibition at 125 µg/mL (S. aureus MB-3649; Staphylococcus aureus, MB3649, Ampicillin 125 μg/ml, read-out: Inhibition Zone Diameter, alone): 17 mm
- zone of inhibition at 250 µg/mL (S. aureus MB-3649; Staphylococcus aureus, MB3649, Ampicillin 250 μg/ml, read-out: Inhibition Zone Diameter, alone): 18 mm
- zone of inhibition at 500 µg/mL (S. aureus MB-3649; Staphylococcus aureus, MB3649, Ampicillin 500 μg/ml, read-out: Inhibition Zone Diameter, alone): 20 mm
- zone of inhibition at 1000 µg/mL (S. aureus MB-3649; Staphylococcus aureus, MB3649, Ampicillin 1000 μg/ml, read-out: Inhibition Zone Diameter, alone): 25 mm
- Inhibition Zone Diameter, plus Clavulanic Ac (S. aureus MB-3648; [2]): 22 mm
- Inhibition Zone Diameter, plus 6 BPA (S. aureus MB-3648; [3]): 23 mm
- Inhibition Zone Diameter, plus Clavulanic Ac (S. aureus MB-3648; [4]): 23 mm
- Inhibition Zone Diameter, plus 6 BPA (S. aureus MB-3648; [5]): 23 mm
- Inhibition Zone Diameter, plus Clavulanic Ac (S. aureus MB-3648; [6]): 26 mm
- Inhibition Zone Diameter, plus 6 BPA (S. aureus MB-3648; [7]): 24 mm
- Inhibition Zone Diameter, plus Clavulanic Ac (S. aureus MB-3648; [8]): 27 mm
- Inhibition Zone Diameter, plus 6 BPA (S. aureus MB-3648; [9]): 25 mm
- Inhibition Zone Diameter, plus Clavulanic Ac (S. aureus MB-3648; [10]): 27 mm
- Inhibition Zone Diameter, plus 6 BPA (S. aureus MB-3648; [11]): 26 mm
- zone of inhibition at 15.7 µg/mL (S. aureus MB-3648; Staphylococcus aureus, MB3648, Ampicillin 15.7 μg/ml, read-out: Inhibition Zone Diameter, alone): 0 mm
- zone of inhibition at 31.3 µg/mL (S. aureus MB-3648; Staphylococcus aureus, MB3648, Ampicillin 31.3 μg/ml, read-out: Inhibition Zone Diameter, alone): 0 mm
- zone of inhibition at 62.5 µg/mL (S. aureus MB-3648; Staphylococcus aureus, MB3648, Ampicillin 62.5 μg/ml, read-out: Inhibition Zone Diameter, alone): 0 mm
- zone of inhibition at 125 µg/mL (S. aureus MB-3648; Staphylococcus aureus, MB3648, Ampicillin 125 μg/ml, read-out: Inhibition Zone Diameter, alone): 18 mm
- zone of inhibition at 250 µg/mL (S. aureus MB-3648; Staphylococcus aureus, MB3648, Ampicillin 250 μg/ml, read-out: Inhibition Zone Diameter, alone): 20 mm
- zone of inhibition at 500 µg/mL (S. aureus MB-3648; Staphylococcus aureus, MB3648, Ampicillin 500 μg/ml, read-out: Inhibition Zone Diameter, alone): 23 mm
- zone of inhibition at 1000 µg/mL (S. aureus MB-3648; Staphylococcus aureus, MB3648, Ampicillin 1000 μg/ml, read-out: Inhibition Zone Diameter, alone): 26 mm

SMILES: O=C(O)[C@H]1/C(=C/CO)O[C@@H]2CC(=O)N21 [Clavulanic Acid]
- Potentiation of Pen G [1, 12]: 64 fold
- Potentiation of ampicillin [1, 12]: 32 fold
- 1/4 of minimum zone-inducing concentration (1/4MZC) ([1]; substance alone vs either MB3648 or MB3649): 4 µg/mL
- Zone of inhibition, Antibiotic + Penase + Pen G (Vibrio percolans MB-1272; 1 μg/ml, Penase 10^4 units/ml, Pen G 5 μg/ml): 0 mm
- Zone of inhibition, Antibiotic + Penase + Pen G (Vibrio percolans MB-1272; 2 μg/ml, Penase 10^4 units/ml, Pen G 5 μg/ml): 0 mm
- Zone of inhibition, Antibiotic + Penase + Pen G (Vibrio percolans MB-1272; 4 μg/ml, Penase 10^4 units/ml, Pen G 5 μg/ml): 0 mm
- Zone of inhibition, Antibiotic + Penase + Pen G (Vibrio percolans MB-1272; 8 μg/ml, Penase 10^4 units/ml, Pen G 5 μg/ml): 0 mm
- Zone of inhibition, Antibiotic + Penase + Pen G (Vibrio percolans MB-1272; 16 μg/ml, Penase 10^4 units/ml, Pen G 5 μg/ml): 10 mm
- Zone of inhibition, Antibiotic + Penase + Pen G (Vibrio percolans MB-1272; 31 μg/ml, Penase 10^4 units/ml, Pen G 5 μg/ml): 21 mm
- zone of inhibition at 1 µg/mL (Vibrio percolans MB-1272; Comamonas terrigena, MB1272, 1 μg/ml, Penase 10^4 units/ml, read-out: Zone of inhibition, Antibiotic + Penase): 0 mm
- zone of inhibition at 1 µg/mL (Vibrio percolans MB-1272; Comamonas terrigena, MB1272, 1 μg/ml, read-out: Zone of inhibition, Antibiotic Alone): 0 mm
- zone of inhibition at 2 µg/mL (Vibrio percolans MB-1272; Comamonas terrigena, MB1272, 2 μg/ml, Penase 10^4 units/ml, read-out: Zone of inhibition, Antibiotic + Penase): 0 mm
- zone of inhibition at 2 µg/mL (Vibrio percolans MB-1272; Comamonas terrigena, MB1272, 2 μg/ml, read-out: Zone of inhibition, Antibiotic Alone): 0 mm
- zone of inhibition at 4 µg/mL (Vibrio percolans MB-1272; Comamonas terrigena, MB1272, 4 μg/ml, Penase 10^4 units/ml, read-out: Zone of inhibition, Antibiotic + Penase): 0 mm
- zone of inhibition at 4 µg/mL (Vibrio percolans MB-1272; Comamonas terrigena, MB1272, 4 μg/ml, read-out: Zone of inhibition, Antibiotic Alone): 0 mm
- zone of inhibition at 8 µg/mL (Vibrio percolans MB-1272; Comamonas terrigena, MB1272, 8 μg/ml, read-out: Zone of inhibition, Antibiotic Alone): 0 mm
- zone of inhibition at 16 µg/mL (Vibrio percolans MB-1272; Comamonas terrigena, MB1272, 16 μg/ml, Penase 10^4 units/ml, read-out: Zone of inhibition, Antibiotic + Penase): 10 mm
- zone of inhibition at 16 µg/mL (Vibrio percolans MB-1272; Comamonas terrigena, MB1272, 16 μg/ml, read-out: Zone of inhibition, Antibiotic Alone): 8 mm
- zone of inhibition at 31 µg/mL (Vibrio percolans MB-1272; Comamonas terrigena, MB1272, 31 μg/ml, Penase 10^4 units/ml, read-out: Zone of inhibition, Antibiotic + Penase): 21 mm
- zone of inhibition at 31 µg/mL (Vibrio percolans MB-1272; Comamonas terrigena, MB1272, 31 μg/ml, read-out: Zone of inhibition, Antibiotic Alone): 20 mm
- Concentration required to produce a zone of inhibition in the presence of Pen G and Penase (Vibrio percolans MB-1272; Pen G 5 μg/ml, Penase 10^4 units/ml): 16 µg/mL
- Amount of clavulanic acid required relative to 6 BPA to produce a zone of inhibition (Vibrio percolans MB-1272; in the presence of Pen G and Penase): 64 times
